The record followed here is patent US7960376B2, “Benzo-fused heterocycles” (priority 2007, dated 2011).

Molecules are shown by their SMILES. Some results are limits rather than exact numbers.

For test [1], the target named is human CB1 receptor (hCB1) (Homo sapiens, UniProt P21554). Nature of the test: cAMP assay (LANCE TR-FRET) in CHO-K1 cells expressing hCB1. The test is classed as cell-based. The note with it: intracellular cAMP, NKH-477 prestimulated, + agonist, − inverse agonist.
Test [2] deals with T1, rat CB2 receptor (rCB2) (Rattus norvegicus, UniProt Q9QZN9).
T1 sequence (Q9QZN9 1-360): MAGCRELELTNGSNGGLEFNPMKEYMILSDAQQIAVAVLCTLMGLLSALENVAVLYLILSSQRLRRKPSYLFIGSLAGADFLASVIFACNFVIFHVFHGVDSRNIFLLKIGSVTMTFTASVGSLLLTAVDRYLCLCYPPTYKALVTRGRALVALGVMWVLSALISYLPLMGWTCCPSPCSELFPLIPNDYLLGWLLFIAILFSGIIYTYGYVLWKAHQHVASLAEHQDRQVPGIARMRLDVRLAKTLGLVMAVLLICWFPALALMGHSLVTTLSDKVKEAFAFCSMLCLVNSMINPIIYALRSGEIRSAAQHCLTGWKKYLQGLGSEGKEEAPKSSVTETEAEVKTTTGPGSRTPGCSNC
The experiment in a line: cell-based. In kind it is cell-based. To be noted: intracellular cAMP, CHO-K1 cells, NKH-477 prestimulated, + agonist, − inverse agonist.

For test [3], the target named is human CB2 receptor (hCB2) (Homo sapiens, UniProt P34972). The experiment in a line: cell-based. To be noted: intracellular cAMP, CHO-K1 cells, NKH-477 prestimulated, + agonist, − inverse agonist. In kind it is cell-based.
Test [4] has as its system CFA-induced mechanical hyperalgesia. The experiment in a line: Anti-hyperalgesia in the Complete Freund's Adjuvant (CFA) model of inflammatory pain, Randall-Selitto paw pressure. In kind it is in vivo, Male Sprague-Dawley rats. The note with it: rat, injured paw, Pre-CFA 175 ± 4 g, Post-CFA 100 ± 3 g, cut-off 260 g, mean ± SEM, p < 0.05 vs Post-CFA.

human CB1 receptor (hCB1), sequence (P21554 whole entry): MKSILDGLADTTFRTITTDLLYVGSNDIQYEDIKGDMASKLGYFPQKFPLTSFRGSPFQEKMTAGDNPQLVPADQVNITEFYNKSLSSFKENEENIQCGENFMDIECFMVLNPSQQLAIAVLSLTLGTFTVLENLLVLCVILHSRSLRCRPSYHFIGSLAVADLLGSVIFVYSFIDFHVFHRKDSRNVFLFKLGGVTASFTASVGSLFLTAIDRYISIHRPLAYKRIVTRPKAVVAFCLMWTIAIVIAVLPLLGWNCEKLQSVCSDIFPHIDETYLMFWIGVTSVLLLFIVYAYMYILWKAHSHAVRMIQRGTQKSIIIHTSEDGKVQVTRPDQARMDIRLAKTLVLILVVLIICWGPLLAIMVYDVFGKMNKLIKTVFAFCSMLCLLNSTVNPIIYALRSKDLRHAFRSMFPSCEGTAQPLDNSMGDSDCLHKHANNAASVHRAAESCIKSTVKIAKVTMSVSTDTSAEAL
human CB2 receptor (hCB2), sequence (P34972 whole entry): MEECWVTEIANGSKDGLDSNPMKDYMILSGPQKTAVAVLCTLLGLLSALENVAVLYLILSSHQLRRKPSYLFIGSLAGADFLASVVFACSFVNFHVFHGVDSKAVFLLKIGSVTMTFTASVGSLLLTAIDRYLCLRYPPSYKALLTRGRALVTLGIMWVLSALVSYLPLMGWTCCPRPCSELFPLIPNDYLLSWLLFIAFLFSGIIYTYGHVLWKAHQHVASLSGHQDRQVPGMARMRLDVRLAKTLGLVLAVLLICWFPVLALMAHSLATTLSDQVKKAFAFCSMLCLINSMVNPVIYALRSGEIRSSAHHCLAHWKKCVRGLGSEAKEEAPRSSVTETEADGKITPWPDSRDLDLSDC

For the compound `O=C(NC1CCCC1)c1ccc2c(c1)N(S(=O)(=O)c1ccc(F)cc1)CCS2` [Example 45, N-cyclopentyl-4-(4-fluorophenylsulfonyl)-3,4-dihydro-2H-benzo[b][1,4]thiazine-6-carboxamide], the “hCB1 EC50 range” value in test [1] is “+D”. Further, in test [2], the “rCB2 EC50 range” value is “+A”. Besides, the “hCB2 EC50 range” value in test [3] was “+B”. The “Test Threshold” value in test [4] (1 mg/paw intrapaw) is listed as 179 ± 19 g.
For the compound `CC(C)(C)c1noc(-c2ccc3c(c2)N(S(=O)(=O)c2ccc(F)cc2)CCS3)n1` [Example 85, 3-tert-butyl-5-(4-(4-fluorophenylsulfonyl)-3,4-dihydro-2H-benzo[b][1,4]thiazin-6-yl)-1,2,4-oxadiazole], in test [1], the “hCB1 EC50 range” value was “+D”. Besides, the “rCB2 EC50 range” value in test [2] was “+B”. Also, in test [3], the “hCB2 EC50 range” value is given as “+B”.
In general, EC50 refers to the midpoint of the concentration-response curve. For the compound `O=S(=O)(c1ccccc1)N1CCSc2ccc(-c3nc(-c4ccccn4)no3)cc21` [Example 87, 5-(4-(phenylsulfonyl)-3,4-dihydro-2H-benzo[b][1,4]thiazin-6-yl)-3-(pyridin-2-yl)-1,2,4-oxadiazole], the EC50 in test [1] (read-out: hCB1 EC50 range), in test [2] (read-out: rCB2 EC50 range) and in test [3] (read-out: hCB2 EC50 range) was above 10 µM in each case.
As to `CCc1noc(-c2ccc3c(c2)N(S(=O)(=O)c2ccc(C(F)(F)F)cc2)CCS3)n1` [Example 89, 3-ethyl-5-(4-(4-(trifluoromethyl)phenylsulfonyl)-3,4-dihydro-2H-benzo[b][1,4]thiazin-6-yl)-1,2,4-oxadiazole], the “hCB1 EC50 range” value in test [1] is “+D”. Further, the “rCB2 EC50 range” value in test [2] is reported as “+A”. For the same compound, the “hCB2 EC50 range” value in test [3] is “+B”.
Taken in the same sequence, the figures for `CCc1noc(-c2ccc3c(c2)N(S(=O)(=O)c2ccc(F)cc2)CCS3)n1` [Example 90, 3-ethyl-5-(4-(4-fluorophenylsulfonyl)-3,4-dihydro-2H-benzo[b][1,4]thiazin-6-yl)-1,2,4-oxadiazole] were “+D”, “+A” and “+B”.
The corresponding values for `CC(C)(C)NC(=O)c1ccc2c(c1)N(S(=O)(=O)c1ccccc1)CCC(C)(C)S2` [Example 91, N-tert-butyl-2,2-dimethyl-5-(phenylsulfonyl)-2,3,4,5-tetrahydrobenzo[b][1,4]thiazepine-7-carboxamide] are “−E”, “+B” and “+D”.
The corresponding values for `C[C@H](NC(=O)c1ccc2c(c1)N(S(=O)(=O)c1ccccc1)CCC(C)(C)S2)C(C)(C)C` [Example 98, (S)-N-(3,3-dimethyl-butan-2-yl)-2,2-dimethyl-5-(phenyl-sulfonyl)-2,3,4,5-tetrahydrobenzo[b][1,4] thiazepine-7-carboxamide] are “−D”, “−E” and “+D”.
On to `CC1(C)CCN(S(=O)(=O)c2ccc(F)cc2)c2cc(C(=O)N3CCOCC3)ccc2S1` [Example 100, (5-(4-fluorophenyl-sulfonyl)-2,2-dimethyl-2,3,4,5-tetrahydro-benzo[b][1,4]thiazepin-7-yl) (morpholino)-methanone], for which the “hCB1 EC50 range” value in test [1] is “−E”. For the same compound, the “rCB2 EC50 range” value in test [2] was “+C”. Besides, the “hCB2 EC50 range” value in test [3] is “+E”.
On to `CC1(C)CCN(S(=O)(=O)c2ccc(F)cc2)c2cc(C(=O)NC3CCCC3)ccc2S1` [Example 101, N-cyclopentyl-5-(4-fluorophenylsulfonyl)-2,2-dimethyl-2,3,4,5-tetrahydrobenzo[b][1,4] thiazepine-7-carboxamide], for which, in test [1], the “hCB1 EC50 range” value is on record as “−E”. In addition, the “rCB2 EC50 range” value in test [2] is reported as “−C”. Further, in test [3], the “hCB2 EC50 range” value is “+E”.
Taken in the same sequence, the figures for `CNC(=O)[C@@H](NC(=O)c1ccc2c(c1)N(S(=O)(=O)c1ccc(F)cc1)CCC(C)(C)S2)C(C)(C)C` [Example 103, (S)-N-(3,3-dimethyl-1-(methylamino)-1-oxobutan-2-yl)-5-(4-fluorophenyl-sulfonyl)-2,2-dimethyl-2,3,4,5-tetrahydrobenz0-[b][1,4]thiazepine-7-carboxamide] were “−E”, “+C” and “+D”.
Take `O=S(=O)(c1ccc(F)cc1)N1CCSc2ccc(-c3nnc(-c4ccccc4)o3)cc21` [Example 104, 2-(4-(4-fluorophenylsulfonyl)-3,4-dihydro-2H-benzo[b][1,4]thiazin-6-yl)-5-phenyl-1,3,4-oxadiazole]: the “hCB1 EC50 range” value in test [1] was “+D”. Also, the “rCB2 EC50 range” value in test [2] is recorded as “+B”. Moreover, the “hCB2 EC50 range” value in test [3] is recorded as “+C”.
As to `O=S(=O)(c1ccc(C(F)(F)F)cc1)N1CCSc2ccc(-c3nnc(-c4ccccc4)o3)cc21` [Example 105, 2-phenyl-5-(4-(4-(trifluoromethyl)phenylsulfonyl)-3,4-dihydro-2H-benzo[b][1,4]thiazin-6-yl)-1,3,4-oxadiazole], the “hCB1 EC50 range” value in test [1] is “+D”. Further, in test [2], the “rCB2 EC50 range” value is “+A”. Further, the “hCB2 EC50 range” value in test [3] is on record as “+C”.
Taken in the same sequence, the figures for `O=S(=O)(c1ccc(F)cc1)N1CCSc2ccc(-c3ncc(-c4ccccc4)[nH]3)cc21` [Example 108, 4-(4-fluorophenylsulfonyl)-6-(5-phenyl-1H-imidazol-2-yl)-3,4-dihydro-2H-benzo[b][1,4]thiazine] were “+E”, “+B” and “+C”.
The corresponding values for `O=S(=O)(c1ccc(C(F)(F)F)cc1)N1CCSc2ccc(-c3nc4ccccc4o3)cc21` [Example 109, 2-(4-(4-(trifluoromethyl)phenylsulfonyl)-3,4-dihydro-2H-benzo[b][1,4]thiazin-6-yl)benzo[d]oxazole] are “+D”, “+B” and “+C”.
In the case of `Cc1c(C(=O)c2cccc3ccccc23)c2cccc3c2n1[C@H](CN1CCOCC1)CO3` [WIN 55212, 2, reference compound], the “Test Threshold” value in test [4] (0.1 mg/paw intrapaw) is listed as 255 ± 5 g.
